The record followed here is US20210379020A1, “COMPOUNDS FOR THE TREATMENT OF MALARIA” (Merck Sharp & Dohme Corp., priority 2016, published 2021).

For this test, the system named is asexual P. falciparum 3D7 parasites. Briefly: P. falciparum growth inhibition assay with LDH activity readout (Assay 1). Format: cell-based, Plasmodium falciparum. The conditions noted are these: 3D7 strain, 72 h incubation, LDH activity read by absorbance at 650 nm. Here is the method: A modified version of the assay described in Gamo, F. J., Sanz, L. M., Vidal, J., de Cozar, C., Alvarez, E., Lavandera, J. L., Vanderwall, D. E., Green, D. V., Kumar, V., Hasan, S., Brown, J. R., Peishoff, C. E., Cardon, L. R., Garcia-Bustos, J. F., Nature, 465 (2010) 305-310 (Gamo et al.) was used to assess the activity of compounds against asexual P. falciparum 3D7 parasites. Compounds were pre-dispensed in 384-well plates, RPMI/AlbuMAX growth media was added and P. falciparum inoculated. Plates were incubated for 72 h and then frozen at −80° C. overnight. LDH activity was quantified with the modified cofactor 3-acetylpyridine adenine dinucleotide (APAD) (Sigma Aldrich) by measuring absorbance of the tetrazolium indicator nitro blue tetrazolium (NBT) (Sigma Aldrich) at 650 nm.
An inoculum of synchronous P. falciparum (3D7 strain) parasitized red blood cells (PRBC) at 0.7% parasitaemia and 2% haematocrit in RPMI-1640, 5% AlbuMAX, 2% D-sucrose, 0.3% glutamine and 150 μM hypoxanthine was used for the assay.
Compound master plates (384-well) were prepared by a 10 pt serial dilution of compounds, from 1 mM to 50.8 nM, in columns 3-12 and 13-22. DMSO was dispensed into columns 1 and 23 of the compound master plate to be used as the positive growth control (100% viability). […] Intermediate compound dilution plates were prepared by dispensing 1 μl from each well of the compound master plate into 11.5 μl of RPMI/AlbuMAX growth media. Duplicate assay plates (384-well) were then prepared by dispensing 0.5 μL of compound from the intermediate dilution plates into 9.5 μl of RPMI/AlbuMAX growth media. The parasite inoculum (30 μL) was dispensed into the assay plates containing compounds using a Multidrop dispenser (Thermo Scientific) such that the final assay volume was 40 μL and final compound concentration was 1 μM-0.05 nM (the volume of compound addition can be adjusted to the preferred and agreed screening concentration). The final DMSO concentration was 0.1% (ideally 0.2% to limit toxicity to parasites), but this is dependent on volume of compound DMSO stock solution that can be supplied. Plates were incubated at 37° C. for 72 h in an atmosphere of 5% CO2, 5% O2, […].
After 72 h of incubation, plates were frozen at −80° C. overnight and then thawed at room temperature for at least 4 h. To evaluate LDH activity, 45 μL of freshly made reaction mix (174 mM sodium L-lactate (Sigma Aldrich), 214 μM 3-acetyl pyridine adenine dinucleotide (APAD) (Sigma Aldrich), 270 μM nitro blue tetrazolium chloride (NBT) (Sigma Aldrich), 4.35 U/mL diaphorase (from Clostridium kluyveri) (Sigma Aldrich), 0.7% Tween 20, 100 mM Tris-HCl pH 7.5) was dispensed using a Multidrop dispenser (Thermo Scientific). Plates were shaken to ensure mixing and absorbance at 650 nm was monitored using a Perkin Elmer Envision plate reader after 30 min of incubation at room temperature. Data were normalized to percent growth inhibition using positive and negative controls, and analysed using TIBCO Spotfire software.
P. falciparum 3D7 strain was grown as described in Assay 1, at 37° C. for 72 hours. The culture was frozen at −80° C. overnight. Cultures were thawed at room temperature for at least 4 hours and the reaction mixture described in Assay 1 was made in order to measure the possible direct inhibition of LDH by the following compounds, assayed as above in Assay 1.
With `N=C1NC(c2ccc(F)cc2)(C2CCCCC2)C(=O)N1Cc1ccc(C(F)(F)F)c(C(=O)N2Cc3nccnc3C2)c1` (centres unmarked) [Compound 4], the IC50 (as a rule, the midpoint of a concentration-inhibition curve) was 9.7 nM.

The molecule `CC(=O)N1CCN(C(=O)c2cc(F)cc(CN3C(=N)NC(c4ccccc4)(c4ccccc4)C3=O)c2)CC1` [Compound 1] gave an IC50 of 4.5 nM.

Molecule `CC(C)CC[C@]1(c2ccccc2)NC(=N)N(Cc2ccc(C(F)(F)F)c(C(=O)N3CC(O)C(F)C3)c2)C1=O` (some centres unmarked) [Compound 3] showed an IC50 of 9.6 nM.

`CC(C)CC[C@]1(c2ccccc2)NC(=N)N(Cc2ccc(C(C)(C)C)c(C(=O)NCc3cccnc3)c2)C1=O` [Compound 11] came in with an IC50 of 172 nM.

With `N=C1NC(C[C@@H]2CCCO2)(c2ccccc2)C(=O)N1Cc1ccc(C(F)(F)F)c(C(=O)N2Cc3nccnc3C2)c1` (some centres unmarked) [Compound 2], the IC50 came out at 5.8 nM.
